Measurements from article PMC3517478 (BMC Neurology, 2012).
Where a chain is given by its changes, count along the chain named. “And” between values parts separate entries of the source, which are not always exact repeats. Identical values can stand only once.

Assays:
[1] = target: T1, human α1-GlyR (WT) expressed in HEK 293 cells (Homo sapiens, UniProt P23415)
T1 sequence (P23415 29-457): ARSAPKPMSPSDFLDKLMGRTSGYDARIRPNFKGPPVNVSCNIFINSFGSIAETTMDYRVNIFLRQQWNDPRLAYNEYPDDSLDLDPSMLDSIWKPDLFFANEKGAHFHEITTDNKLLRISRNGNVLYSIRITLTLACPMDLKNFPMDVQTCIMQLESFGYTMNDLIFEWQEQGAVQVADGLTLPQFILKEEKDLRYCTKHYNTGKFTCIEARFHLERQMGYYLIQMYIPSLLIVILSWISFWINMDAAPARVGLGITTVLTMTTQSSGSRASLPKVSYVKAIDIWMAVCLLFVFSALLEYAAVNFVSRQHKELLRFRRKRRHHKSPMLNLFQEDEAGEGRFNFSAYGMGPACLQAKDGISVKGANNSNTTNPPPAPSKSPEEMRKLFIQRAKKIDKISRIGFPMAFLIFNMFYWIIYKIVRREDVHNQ
Source text: Human α1-, α1R271Q-, α1R271L-, α1R271K and α1S267I-GlyR subunits were transiently transfected into human embryonic kidney cells (HEK 293, ATCC, Manassas, USA). The wild type α1-GlyR -cDNA was cloned in pCIS2 (Invitrogen, San Diego, USA) vector and provided by Prof. Heinrich Betz (Max-Planck-Institut für Hirnforschung, Frankfurt am Main, Germany). For the plasmid cDNA of the mutated α1R271Q-, α1R271L-, α1R271K- and α1S267I-GlyR the eukaryotic expression vector pcDNA1amp (Invitrogen, San Diego, USA), under the control of cytomegalovirus promoter, was used. For site-directed mutagenesis, single stranded template cDNA was synthesized from M13 origin of replication and the mutations of arginine residue (R) at position 271 to glutamine (R271Q), leucine (R271L) or lysine (R271K) and mutation of serine residue (S) at position 267 to isoleucine (S267I) were generated using standard procedures. […] Wild type and mutated α1-GlyR subunits efficiently form homomeric receptors in heterologous expression systems.
HEK 293 cells were cultured in medium containing HAMS’F-12 (Biochrom, Berlin, Germany), supplemented with 10% fetal bovine serum (FBS, Biochrom, Berlin, Germany), 100 U ml^–1 penicillin and 100μgml^–1 streptomycin (Gibco BRL, Life Technologies, Karlsruhe, Germany) at 37°C in a 5% CO2/ 95% air incubator. For transfection cells were suspended in a buffer containing 50mM K2HPO4 (Fluka BioChemika, Seelze, Germany), 20mMK-acetate (Sigma-Aldrich, Taufkirchen, Germany) and 25mM MgSO4 (Sigma-Aldrich, Taufkirchen, Germany) at pH 7.35. To visualize transfected cells, they were co-transfected with cDNA encoding for enhanced green fluorescent protein (EGFP) contained in the pEGFP-N1 expression vector (Clontech, Palo Alto, USA). The corresponding cDNA (5μg for the GlyR and 2.5μg for EGFP) was added to 400μl of the cell suspension and the mixture was rapidly transferred into the electroporation cuvette. For transfection we used an electroporation device by EquiBio (Kent, UK) and a 4mm aluminum electrode electroporation cuvette (Peqlab, Erlangen, Germany).
The phenol derivative 4-chloropropofol ([…]) was provided as pure substance by Prof. Paul M. O’Neill (University of Liverpool, England), prepared as light-protected 1M stock solution in ethanol (EtOH, J.T.Baker, Griesheim, Germany) and stored in glass vessels at −20°C.
Drug-containing vials were vigorously vortexed for 30min. Patch electrodes were filled with an intracellular solution of [mM] KCl 140, MgCl2 2, EGTA 11, HEPES 10, glucose 11, CaCl2 1 with pH 7.3, adjusted with 1 M KOH and a bath solution contained [mM] NaCl 162, KCl 5.31, NaHPO4 0.85, KH2PO4 0.22, HEPES 15, glucose 6.11, pH 7.4 adjusted with 1 M NaOH. Osmolarity of both solutions was set at 280–300 mOsmol.
Whole-cell experiments were performed at a holding potential of −30 mV with a mean seal resistance of 1 GΩ. […] A fast liquid filament switch technique was used for the application of the agonist, presented in pulses of 2 s duration every 20 s. The liquid filament switch technique is able to exchange the solution passing an outside-out patch or small whole-cells within 1–2 ms. We calculated flow rate of background solution through the chamber with 3,4 ml/min corresponding to 4% of maximal pump rate. With regard to the chamber volume of 100 μl the exchange solution time within the chamber was assessed to approximately […], dependent on cell size accordingly. Piezo-switch and small diameter capillary (ID 0.15 mm) within the measurement chamber promoted the millisecond solution exchange. […] The induced current (I) by this saturating control solution was defined as Icontrol. […] The stability of the seal was controlled during the complete experiment via control of the seal resistance. A variation of 10-20% of the basic value was regarded as tolerable.

[2] = target: T2, human α1R271Q-GlyR expressed in HEK 293 cells (Homo sapiens, UniProt P23415, R299Q); test: Whole-cell patch-clamp, positive allosteric modulation of glycine (EC20) induced currents; assay type: cell-based; design: expressed in transfected cells; host or cells: HEK 293 (transient, electroporation; pcDNA1amp vector); details: R271Q
T2 sequence (P23415 29-457 R299Q): T1 sequence (P23415 29-457) with R271Q
Procedure: Drug-containing vials were vigorously vortexed for 30min.
A new cell was used for each protocol and at least four different experiments were performed for each condition. The concentration of the diluent EtOH corresponding to the highest drug concentration used was 17150 μM.
Currents were filtered at 2 kHz.
Currents were normalized to their own maximum response.

Row | Compound | Current amplitude [% of mean WT current amplitude] ± SEM [1] | nH ± SEM (Hill coefficient), glycine activation [1] | Rise time ± SEM ([1]; 10-90% of Imax, monoexponential fit) | Mean current amplitude ± SEM ([1]; saturating glycine 1 mM) | positive allosteric modulation nH ± SEM ([2]; EC20 glycine 10 mM) | EC50 ([2]; co-applied with sub-saturating (EC20) glycine 10 mM, read-out: positive allosteric modulation EC50 ± SEM) | positive allosteric modulation, potentiation [% of peak current amplitude] ± SEM ([2]; maximal positive allosteric modulation, EC20 glycine 10 mM)
1 | NCC(=O)O [glycine] | 100.0±26% | 0.8 and 0.8±0.7 | 3.7 ms and 3.7 ± 0.8 ms | 1645±426 pA | – | – | –
2 | 4-chloro-2,6-dimethylphenol [4-chloropropofol] | – | – | – | – | 0.9 ± 1.3 | 1300 ± 600 nM | 260 ± 52%
